Experimental data reported in patent US10028996B2, “Process for the synchronization of ovulation for timed breeding without heat detection” (priority 2003, dated 2018).

Key:
Assay type in all cases: in vivo, swine
postpartum sows [1] = test: Single timed deslorelin injection 96 hours post-weaning, single timed insemination without estrus detection; conditions: 50 mcg in SAIB 96 hours post-weaning, no estrus detection
Procedure: Approximately 170 postpartum sows were randomly divided into two equal groups comprised of controls and treated. Following weaning, the controls were detected for estrus and bred following the normal standard operating procedures for the farms on which they resided. The treated sows received a 50 mcg dose of deslorelin in SAIB at 96 hours post-weaning and were bred with a single insemination 28+/−2 hours later with no regard to estrus detection. The sows were examined for pregnancy by ultrasound at 21 days and slaughtered around 28 days post breeding. The entire reproductive tract was removed and corpora lutea and embryos were counted.

mature postpartum sows = test: Deslorelin injected intravulvar at estrus detection in mature postpartum sows, AI breeding; conditions: 50 mcg intravulvar at estrus detection
Procedure: Sows were assigned randomly in blocks of two to either control or to be injected intravulvar with 50 mcg of deslorelin in SAIB at the time of estrus detection for sows first detected in estrus in the a.m. and 12 hours later for those first detected in estrus in the p.m. Treated animals were bred AI upon detected estrus and again 24 hours later if still in estrus. Controls received a saline injection on first detected estrus behavior estrus detection and were bred according to the farm's normal procedures.

postpartum sows [2] = test: Litter size after deslorelin treatment in postpartum sows at three farm sites; conditions: Tables 3 to 5; regardless of estrus detection
Text: Postpartum sows were randomly distributed into three different groups comprised of Controls, Treatment 1, and Treatment 2, with the exception of Site 3, which was divided into two groups, Control and Treatment 2. Control sows were detected for estrus following weaning, and bred following the normal standard operating procedures for the farms on which they resided. Treatment 1 sows were detected for estrus following weaning, and received a 50 mcg dose of deslorelin in the morning when standing and were bred by AI 4 hours later and again at 24+/−2 hours later. Treatment 2 sows received a 50 mcg dose of deslorelin in SAIB at 96 or 120 hours post-weaning and were bred with a single insemination 28+/−2 hours later with no regard to estrus detection.

[3] = system: ovariectomized estrogen primed gilt model; test: Dose response study of deslorelin in SAIB, LH release determined by RIA; conditions: single injection of 50 mcg in SAIB
Procedure: A dose response study was performed using deslorelin in SAIB in an ovariectomized estrogen primed gilt model (Barb, et al. (1999) Proceed. Int'l. Symp. Control. Rel. Bioact. Mater., 26).

CCNC(=O)[C@@H]1CCCN1C(=O)[C@H](CCCN=C(N)N)NC(=O)[C@H](CC(C)C)NC(=O)[C@@H](Cc1c[nH]c2ccccc12)NC(=O)[C@H](Cc1ccc(O)cc1)NC(=O)[C@H](CO)NC(=O)[C@H](Cc1c[nH]c2ccccc12)NC(=O)[C@H](Cc1cnc[nH]1)NC(=O)[C@@H]1CCC(=O)N1 [Deslorelin, deslorelin]
Pregnancy Rate (postpartum sows [1]): 71%
difference in pregnancy rates, Control versus Treated (mature postpartum sows): no significant difference
litter sizes, in words (postpartum sows [2]): normal litter sizes
time at which LH returned to base level [3]: ≤ 18 h
LH peak relative to normal value ([3]; compared to Hansel et al. (1973)): about twice normal value
